Results on one compound are retold here after patent US11628164B2, “Composition containing salsolinol for treating liver cancer” (SUNGSHIN WOMEN'S UNIVERSITY R&DB FOUNDATION, priority 2020, dated 2023).

In series [1] the test system is normal hepatocytes (NCTC1469). The conditions noted are these: NCTC1469, from KR10-2019-0129765; cited from earlier work.
Series [2] has as its system Ki-67, 8-OHdG in liver tissue. The experiment in a line: Immunofluorescence staining of liver tissue (Ki-67, 8-OHdG). In kind it is in vivo, C57BL/6 mouse. As to the method: (§1) The salsolinol (200 mg/kg) is administered for 6 months through intraperitoneal injection three times per week from the time when the DEN-induced liver cancer mouse model (male) became 7 weeks of age. After the mouse is sacrificed, the experiment is performed.
In the paraffin section slide requested to be manufactured by NORTHUS Co., Ltd., paraffin is removed by using xylene (Duksan, Gyeonggi, Korea). And, after a hydration process with low concentration ethanol (100, 90, 80, and 70% ethanol) at a high concentration, the slide is rinsed twice with running water. Since formaldehyde forms a cross-link between proteins to prevent a primary antibody from binding to the epitope of the antigen, the cross-link is removed by using an antigen retrieval reagent (sigma). After washing the slide thoroughly with running water, and dropping 2% triton for nuclear staining, the slide is left for 45 minutes. After washing the slide thoroughly with running water, blocking proceeds for 1 hour with a PBS solution containing 3% BSA to prevent non-specific binding. Then, after dropping a diluted PBS solution containing 3% BSA diluted with a primary antibody (8-OHdG, Ki-67) (1:500) on the slide, the slide is left at 4° C. for one day. After washing the slide with PBS and dropping a diluted secondary antibody (1:2000) on the slide, the slide is left at 4° C. for 1 hour. After washing the slide with PBS, staining with DAPI (1:200), and dropping 2-3 drops of mounting solution (sigma), the slide is covered with a slide cover. After about a day, the degree of fluorescence staining is checked by using a confocal microscope.
Tumor-related genes Ki-67 and 8-OHdG expressed in the liver tissue of the DEN-induced liver cancer mouse model (male, DEN), the DEN-induced liver cancer mouse model (male, DEN+SAL) administered with the salsolinol, and the normal mouse (male, SAL) administered with the salsolinol are analyzed by using an immunofluorescence measurement method (refer to FIGS. 10 and 11).

Series [3] concerns SNU387. Description: MTT cell viability, female-derived liver cancer cell line. To be noted: SNU387, 5-100 μM salsolinol, 24, 48, 72 hours. The series is classed as cell-based, human. The protocol: SK-Hep1 and SNU387, which are human-derived hepatoma cell lines, are distributed from Korea Cell Line Bank. […] The SK-Hep1 and the SNU387 are cultured in a medium including a minimum essential medium (Dulbecco Modified Eagle Medium, DMEM) (Gibco BRL grand Island, N.Y., USA) and in a medium containing 10% FBS (HyClone Lab, Inc, Logan, Utah, USA), 100 U/ml penicillin. (penicillin) and 100 μg/ml streptomycin (Gibco, Grand Island, N.Y., USA) at 37° C. in an atmosphere of 5% CO2. The cultured liver cancer cell lines (SK-HEP1 and SNU387) are dispensed into each well of a 48-well plate so as to have a concentration of 5×10^4 cells. After culturing for 24 hours, the sample is treated with the salsolinol for 24 hours, 48 hours, and 72 hours so as to have a concentration of 5 μM, 15 μM, 25 μM, 50 μM, or 100 μM. After that, 250 μl of 0.5 mg/ml MTT solution (Sigma, St Louis, Mo., US) is added to each well and reacted at 37° C. for 1 hour. After removing the solution, MTT-formazione is lysed and washed with 250 μl of DMSO (Dimethylsulfoxide, Duksan, Gyeonggi, Korea), and then, the absorbance at 540 nm is measured by using a SpectraMax 190 microplate plate reader (Molecular Devices, LCC. San Jose, Calif.). […]

Series [4] has as its system AKT, p-AKT, Annexin A2, PCNA in liver tissue. Description: Western blotting of liver tissue, DEN-induced liver cancer mouse model. The series is classed as in vivo, C57BL/6 mouse. The conditions noted are these: DEN+SAL liver tissue. As to the method: 5×10^5 cells of Human-derived liver cancer cell lines SK-Hep1 and SNU387 are cultured in a 60 mm culture vessel, the cells are lysed, and proteins are separated through electrophoresis. And after that, western blotting analysis is performed by using a specific antibody. After treatment of the SK-Hep1 and the SNU387 with the salsolinol at different times and concentrations, the cells are washed with PBS, and the cells are scraped off with a scraper. The cells are lysed in a lysis buffer for 1 hour, and after that, centrifuge separation is performed at 13,000 rpm for 15 minutes at 4° C., and only the supernatant is extracted. 20 μg of protein contained in the supernatant is electrophoresed on SDS-polyacrylamide gel, and after that, transferred to a PVDF membrane for 2 hours. The sample reacts with antibodies pSTAT3(#9145), STAT3(#9132), PCNA(#2586), 15-PGDH(cayman No. 160615), p53(sc-126), p53(sc-99), pAKT(#9271), AKT(#9272), Annexin A2(#8235), and GAPDH(sc-32233). The protein is detected by using an enhanced chemiluminascence (ECL) detection solution.
as §1
The normal mouse, the DEN-induced liver cancer mouse model, and the DEN-induced liver cancer mouse model administered with the salsolinol are sacrificed, the livers are excised, the liver tissues are crushed, and the proteins are extracted. After separating the extracted protein through electrophoresis, the expression levels of tumor-related genes AKT, p-AKT, Annexin A2, and PCNA and the changes in the expression levels are analyzed by using a Western blotting method (refer to FIG. 9).

Where [5] appears, read: normal mouse administered with salsolinol (SAL).

Regarding `CC1NCCc2cc(O)c(O)cc21` (stereo not shown) [salsolinol, 6,7-dihydroxy-1-methyl-1,2,3,4-tetrahydroisoquinoline], in series [1], the PARP-cleavage / apoptosis result is recorded as “PARP-cleavage is induced to induce apoptosis”; the “fibrosis-related genes and active oxygen species” value was “increases fibrosis-related genes and active oxygen species”. In series [2] (DEN+SAL liver), the Ki-67 expression entry is “not confirmed”. Moreover, the 8-OHdG expression entry in series [2] (DEN+SAL liver tissue) was “at a low level”. For the same compound, in series [2] (setting [5]), the 8-OHdG expression entry is on record as “at a low level” and the Ki-67 expression entry is “not confirmed”. For the same compound, the “cell viability (MTT)” value in series [3] is recorded as “cell viability is not decreased”. In series [4], the “Annexin A2 expression level” value is given as “decreased”, the PCNA expression level result was “decreased to the level of the normal mouse” and the “degree of phosphorylation of AKT (p-AKT)” value is listed as “decreased to the level of the normal mouse”.
